# Results taken from US20150152441A1, “METHODS AND SYSTEMS FOR IMPROVING FERMENTATION EFFICIENCY” (LanzaTech New Zealand Limited, priority 2013, published 2015).
# Assays:
# [1] = cited from earlier work
# [2] = tested on: Clostridium autoethanogenum culture; assay: Determination of effect of BTEX on fermentation (continuous CO gas fermentation; impact seen as rising pH and/or effect on CO and H2 uptake); type: cell-based; settings: for Liquid tolerance level / Liquid impact level (ppm): level in fermentation broth, compound added individually; for Liquid tolerance level: addition lowered until no effect was observed; for Liquid impact level (ppm): impact = rising pH and/or effect on CO and H2 uptake
# Protocol: Media was prepared according to the composition described in Tables 1-3 to a volume of 1.5 L and 1.5 ml of resazurin added. The solution was heated and agitated whilst degassed with N2. A Na2S drip was started at a rate of 0.5 ml/hr and temperature of the bioreactor set to 37° C. The pH was adjusted to 5.0 with NH4OH and chromium was added to adjust the ORP to −200 mV. The bioreactor was then supplied with RMG (43% CO, 20% CO2, 2.5% H2 and 33% N2) at a flow rate of 50 ml/min. The solution was inoculated with 150 ml of an actively growing Clostridium autoethanogenum culture. The fermentation was operated continuously for a period of 41 days at dilution rate 1.5. At day 26.8, Toluene was added to the gas phase. To achieve this, the inflow gas was sparged through a toluene solution, which allowed toluene to accumulate in the reactor. Toluene was allowed to accumulate for 17 hours. The fermentation was allowed to recover and the experiment was repeated on day 27.8.
# The reactor was allowed to recover. On day 35 Benzene was added to the gas phase. To achieve this, the inflow gas was sparged through a benzene solution, which allowed benzene to accumulate in the reactor. […] Benzene was allowed to accumulate to higher concentrations.
# The effect of the addition of xylene and ethylbenzene were also performed using the same techniques. Based on vapour pressure the compounds would evaporate at a certain rate into gaseous phase.
# The effect of the introduction of the various BTEX compounds on bacterial culture performance was determined by measurement of the following: culture density, metabolite concentration (ethanol, acetate, etc), oxidation-reduction potential, pH, carbon monoxide and hydrogen consumption. The compound accumulation in the gas and culture liquid phase was determined by GC-MS measurements.
# Liquid tolerance levels were determined by lowering the addition until no effect was observed.
Compound,mm Hg vapor pressure (25° C.) [1] [mm Hg],level in broth at which the compound began to effect the fermentation ([2]; FIG. 5-7) [ppm],"accumulation resulting in an increase in pH and decrease in CO uptake ([2]; FIG. 6, 7)",accumulation level with no observable effect on the fermentation ([2]; benzene added to gas phase on day 35) [ppm],Liquid tolerance level [2] [ppm],Liquid impact level (ppm) [2] [ppm],effect of addition to the reactor on the fermentation [2],"level in fermentation broth at which CO uptake decreased, with rising pH trend ([2]; after 3.5 hours exposure, FIG. 2-4)",level in broth below which CO uptake and pH returned to pre-addition levels (fermentation recovers) ([2]; after toluene addition was stopped),effect on carbon monoxide utilisation of the microorganism ([2]; excess levels in fermentation solution)
c1ccccc1 [Benzene],76,≥ 50,greater than 50 ppm,≤ 40,<40,>40,–,–,–,–
CCc1ccccc1 [Ethyl Benzene],7,–,–,–,<10,>20,same effect was also seen,–,–,–
Cc1ccccc1 [Toluene],22,–,–,–,<25,>50,–,greater than 100 ppm,below 100 ppm,clear negative effect
c1ccc2ccccc2c1 [naphthalene],–,–,–,–,–,–,does not have a negative effect on the fermentation,–,–,–
Xylenes,–,–,–,–,<10,>100,same effect was also seen,–,–,–
